Experimental data from patent publication US5342970A, “Hydrosoluble coumarin derivatives, their preparation and their use as an enzyme substrate or for the preparation of such substrates” (priority 1991, dated 1994).
≈ marks a conversion by molar mass, not a printed value. Where “and” joins values, the source holds several entries; their conditions need not be identical. Equal entries are not always repeated. Structures can show the parent of a compound that is named as a salt. Where two headings read alike, the source gives them in different places.

How the values were obtained:
Pig pancreas trypsin [1] = biological target: T1, Pig pancreas trypsin (Sus scrofa, UniProt P00761); settings: for comparison purposes; cited from earlier work
T1 sequence (P00761 9-231): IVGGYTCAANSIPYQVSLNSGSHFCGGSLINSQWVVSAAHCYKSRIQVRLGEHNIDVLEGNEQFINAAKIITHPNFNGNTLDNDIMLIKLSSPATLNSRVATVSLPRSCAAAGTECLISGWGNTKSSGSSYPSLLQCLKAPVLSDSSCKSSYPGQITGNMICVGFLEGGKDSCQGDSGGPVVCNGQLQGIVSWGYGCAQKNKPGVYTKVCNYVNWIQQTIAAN

[2] = Solubility in water and in water-ethanol mixtures; assay type: physicochemical
[3] = Excitation and emission spectra of ATC derivatives (Table 4); assay type: physicochemical; settings: 10^-7 M, Z-Arg-ATC in 50 mM Tris pH 8, 10 mM CaCl2
Method: The excitation and emission spectra of ATC and Z-Arg-ATC were plotted on the basis of 10^-7 M solutions in the 50 mM Tris buffer at pH 8 containing 10 mM of CaCl2. The maxima obtained are indicated in table 4 with the corresponding maxima of Leu-ATC.

Pig pancreas trypsin [4] = biological target: T1, Pig pancreas trypsin; test: Hydrolysis of substrate by trypsin, Michaelis kinetics; assay type: biochemical
Method: Crystalline Z-Arg-ATC hydrochloride (Seratec): 10^-3 M solution in Tris buffer, pH 8.0+CACl2, 10 mM.
Pig pancreas trypsin (SIGMA T0134): 10^-3 M solution in Tris buffer, pH 8.0+CACl2, 10 mM.
Tris buffer: solution A: 0.2M Tris, i.e. 24.23 g/l+CaCl2, 40 mM, i.e. 5.88 g/l; solution B: 0.1M HCl.
This buffer is prepared by mixing 250 ml of solution A with 268 ml of solution B and by topping up to 1 liter with water.
Acetate buffer: solution A: 0.02M acetic acid; solution B: 0.02M sodium acetate.
This buffer is prepared by mixing volume by volume solutions A and B to obtain a buffer at pH 4.75.
Aqueous 1.17N perchloric acid solution (1/10 dilution of pure acid).
The following substrate concentration range was prepared in tubes: 0-0.2-0.5-1-2-5-10×10^-4 M (final concentration).
To each tube was added a concentration of 6.67 μg/ml of trypsin, everything being dissolved in the Tris buffer pH 8.0+CaCl2, 10 mM and at ambient temperature. The enzyme is added at time 0. After 2 minutes, 250 μl are removed from each tube and poured into tubes containing 250 μl of 1.17N perchloric acid and 500 μl of water. The tubes are centrifuged and then the solution is diluted to 1/250 in the acetate buffer. The same operation is repeated at 17 min. The fluorescence intensity is measured at 380/490nm. The difference of the intensities at 17 and 2 min constitutes the signal.
The corresponding ATC concentration is calculated compared with a calibration range from 5×10^-9 to 2×10^-7 M.
This was followed by the determination of Km, Vm, kcat and the ratio kcat/Km. The results obtained are given in table 6, which also gives for comparison purposes the values obtained with Z-L-Arg-AMC and Bz DL Arg-AMC and Bz -L-Arg-AMC.

Pig pancreas trypsin [5] = biological target: T1, Pig pancreas trypsin; test: Determination of trypsin, analytical characteristics; assay type: biochemical
Method: Six calibration ranges containing a final enzyme concentration of 0-0.42-0.84-1.67-3.33-6.67 μg/ml were prepared. Each calibration curve was determined by linear regression. The mean standard deviation is 2.45×10^-3 ±0.003×10^-3 for the gradient and 4.80×10^-3 ±2.53×10^-3 for the intercept The linearity test is significant at the 5% threshold (W=0.245). The quantification limit, calculated by the ratio 3σb /a is 0.05 μg/ml. The repeatability, evaluated by the variation coefficient, is 9.4% at 0.42 μg/ml, 5.9% at 0.84 μg/ml and 1.3% at 6.67 μg/ml.

[6] = Excitation and emission spectra of substrates and hydrolysis products (Table 1); assay type: physicochemical; settings: 10^-7 M in Tris buffer, pH 7.8
Leucine aminopeptidase = settings: known substrates, for comparison; medium with organic solvent; cited from earlier work
[7] = water, read-out: Solubility in water
[8] = enzyme 0-6.67 μg/ml, linear regression

For `Cc1cc(=O)oc2cc(NC(=O)C(CCCNC(=N)N)NC(=O)c3ccccc3)ccc12` (racemic) [Bz--DL--Arg--AMC], the Km (Pig pancreas trypsin [1]) is listed as 250 µM, the kcat (Pig pancreas trypsin [1]) is listed as 0.20 s⁻¹ and the kcat/Km (Pig pancreas trypsin [1]) is listed as 800 M⁻¹ s⁻¹.
For `Cc1cc(=O)oc2cc(NC(=O)[C@H](CCCNC(=N)N)NC(=O)c3ccccc3)ccc12` [Bz--L--Arg--AMC], the Km (Pig pancreas trypsin [1]) is listed as 110 µM, the kcat (Pig pancreas trypsin [1]) is listed as 0.42 s⁻¹ and the kcat/Km (Pig pancreas trypsin [1]) is listed as 3800 M⁻¹ s⁻¹.
Compound `COCCOCCOCc1cc(=O)oc2c3c4c(cc12)CCCN4CCC3` [Compound 7, 2,3,6,7-tetrahydro-9-(2',5',8'-trioxanonyl)-1H, 5H, 11H-(1)-benzopyrano-(6,7,8-ij)-quinolizinone-11] has a solubility ([2]; ethanol:water 30:70, organic solvent or mixture, read-out: Solubility in ethanol:water mixture (30:70)) of 3000 µg/mL (≈ 8.03 mM) and a solubility [2, 7] of 200 µg/mL (≈ 0.536 mM).
`COCCOCCOCc1cc(=O)oc2cc(O)ccc12` [Compound 10, 7-hydroxy-4-(2',5',8'-trioxanonyl)coumarin] gave a solubility ([2]; water-ethanol 90:10, organic solvent or mixture, read-out: Solubility in the water-ethanol mixture (90:10)) of 7000 µg/mL (≈ 23.8 mM) and a solubility [2, 7] of 1000 µg/mL (≈ 3.4 mM).
With `COCCOCCOCc1cc(=O)oc2cc(NC(=O)[C@H](CCCNC(=N)N)NC(=O)OCc3ccccc3)ccc12` [Compound 14, N-carbobenzyloxy-L-arginyl-4-(2',5',8'-trioxanonyl)-7-coumarinylamide hydrochloride] the “excitation maximum, substrate” value [3] was 355 nm, the “fluorescence maximum, substrate” value ([3]; hydrochloride) was 415 nm and 450 nm and the Vm (Pig pancreas trypsin [4]; Tris buffer pH 8.0 + CaCl2 10 mM, ambient temperature) was 474 nmole/min/mg Ez. The ATC hydrolysis solution (Pig pancreas trypsin [4]; substrate 0.2×10^-4 M) was 0.224 µM/min, the ATC working solution (Pig pancreas trypsin [4]; substrate 0.2×10^-4 M) was 3.36 nM and the “IF(17)-IF(2)” value (Pig pancreas trypsin [4]; substrate 0.2×10^-4 M) was 3.7. For the same compound, the ATC hydrolysis solution (Pig pancreas trypsin [4]; substrate 0.5×10^-4 M) was 0.467 µM/min, the ATC working solution (Pig pancreas trypsin [4]; substrate 0.5×10^-4 M) was 7.00 nM and the “IF(17)-IF(2)” value (Pig pancreas trypsin [4]; substrate 0.5×10^-4 M) was 7.7. For the same compound, the ATC hydrolysis solution (Pig pancreas trypsin [4]; substrate 1×10^-4 M) was 1.03 µM/min, the ATC working solution (Pig pancreas trypsin [4]; substrate 1×10^-4 M) was 15.4 nM and the “IF(17)-IF(2)” value (Pig pancreas trypsin [4]; substrate 1×10^-4 M) was 16.9. For the same compound, the ATC hydrolysis solution (Pig pancreas trypsin [4]; substrate 2×10^-4 M) was 1.81 µM/min, the ATC working solution (Pig pancreas trypsin [4]; substrate 2×10^-4 M) was 27.1 nM and the “IF(17)-IF(2)” value (Pig pancreas trypsin [4]; substrate 2×10^-4 M) was 29.8. The ATC hydrolysis solution (Pig pancreas trypsin [4]; substrate 5×10^-4 M) was 2.36 µM/min, the ATC working solution (Pig pancreas trypsin [4]; substrate 5×10^-4 M) was 35.4 nM and the “IF(17)-IF(2)” value (Pig pancreas trypsin [4]; substrate 5×10^-4 M) was 38.9. The ATC hydrolysis solution (Pig pancreas trypsin [4]; substrate 10×10^-4 M) was 2.57 µM/min, the ATC working solution (Pig pancreas trypsin [4]; substrate 10×10^-4 M) was 38.6 nM and the “IF(17)-IF(2)” value (Pig pancreas trypsin [4]; substrate 10×10^-4 M) was 42.4. The “affinity and activity compared with Bz-DL-Arg-AMC” value (Pig pancreas trypsin [4]; words) was “comparable with Bz-DL-Arg-AMC”, the “repeatability (variation coefficient)” value (Pig pancreas trypsin [5]; at 0.42 μg/ml enzyme) was 9.4% and the “repeatability (variation coefficient)” value (Pig pancreas trypsin [5]; at 0.84 μg/ml enzyme) was 5.9%. For the same compound, the “repeatability (variation coefficient)” value (Pig pancreas trypsin [5]; at 6.67 μg/ml enzyme) was 1.3%, the “gradient of calibration curve” value (Pig pancreas trypsin [5]; [8]) was 2.45×10^-3 ±0.003×10^-3 and the “intercept of calibration curve” value (Pig pancreas trypsin [5]; [8]) was 4.80×10^-3 ±2.53×10^-3. The quantification limit (Pig pancreas trypsin [5]; trypsin, ratio 3σb/a) was 0.05 µg/mL and the “detection limit for trypsin compared with substrates derived from AMC” value (Pig pancreas trypsin [5]; words) was “of the same order of magnitude as that obtained with substrates derived from AMC”.
With `N=C(N)NCCC[C@H](NC(=O)CNC(=O)CN)C(=O)Nc1ccc2c(CS(=O)(=O)O)cc(=O)oc2c1` [GlyGly Arg AMCS, reference compound] the “Maximum excitation wavelength, substrate” value [6] was 336 nm and the “Maximum fluorescence wavelength, substrate” value [6] was 409 nm.
In the case of `CC(C)C[C@H](N)C(=O)Nc1ccc2ccccc2c1` [Leu-βnaphthylamide], the Km (Leucine aminopeptidase) is given as 150 µM and the Vm (Leucine aminopeptidase) is given as 5.5 μmole/mg Ez/min.
In the case of `Cc1cc(=O)oc2cc(NC(=O)[C@H](CCCNC(=N)N)NC(=O)OCc3ccccc3)ccc12` [Z--L--Arg--AMC], the Km (Pig pancreas trypsin [1]) is listed as 200 µM, the kcat (Pig pancreas trypsin [1]) is listed as 0.89 s⁻¹ and the kcat/Km (Pig pancreas trypsin [1]) is listed as 4500 M⁻¹ s⁻¹.
